Reference: article PMC6104039 (Nature Communications, 2018)
Several values for one entry are separate records, joined by “and”; a condition that tells them apart may be missing. Equal entries are not always repeated.

System: HEK293 cells
Test: Endogenous ceramide, HexCer and SM levels in cells treated 24 h, targeted LC-MS/MS
Type: cell-based
Conditions: HEK293 cells, 24 h
Experimental: Lipids were then extracted using MTBE/methanol/water as described above.
HEK293 cell culture experiment: Levels of each lipid in P053-treated HEK293 cells were normalised to the mean of the vehicle control group, and each concentration was compared to the control using ANOVA with Dunnett’s post-test. P values were adjusted for multiple comparisons in GraphPad PRISM.
Supplementary Figure 1. Ceramide, SM, and HexCer levels in HEK293 cells treated with
P053. Absolute lipid levels were determined by targeted LC-MS/MS, relative to external
standard curves. Results are mean ± SEM (n = 4) from one of two identical experiments.
Statistically significant results, based on two independent experiments, are as indicated in
Figure 2b-d. Raw data for these figures is provided in Supplementary Data File 1.

C[C@@](N)(CO)CCc1ccc(OCc2ccc(Cl)c(Cl)c2)cc1 [P053, (S)-2-amino-4-(4-(3,4-dichlorobenzyloxy)phenyl)-2-methylbutan-1-ol]
16:0 Cer level (P053 100 nM): 93.0789 percentage of the vehicle control group and 87.8624 percentage of the vehicle control group and 90.7567 percentage of the vehicle control group and 99.4946 percentage of the vehicle control group and 119.082 percentage of the vehicle control group and 99.8119 percentage of the vehicle control group and 116.788 percentage of the vehicle control group and 98.8463 percentage of the vehicle control group
16:0 HexCer level (P053 100 nM): 72.1291 percentage of the vehicle control group and 81.3101 percentage of the vehicle control group and 75.1757 percentage of the vehicle control group and 88.1626 percentage of the vehicle control group and 92.7296 percentage of the vehicle control group and 94.3662 percentage of the vehicle control group and 88.291 percentage of the vehicle control group and 103.879 percentage of the vehicle control group
16:0 SM level (P053 100 nM): 96.6683 percentage of the vehicle control group and 97.496 percentage of the vehicle control group and 96.0726 percentage of the vehicle control group and 98.7215 percentage of the vehicle control group and 93.8292 percentage of the vehicle control group and 95.9275 percentage of the vehicle control group and 94.8581 percentage of the vehicle control group and 102.543 percentage of the vehicle control group
16:1 SM level (P053 100 nM): 104.314 percentage of the vehicle control group and 87.7756 percentage of the vehicle control group and 92.2071 percentage of the vehicle control group and 111.506 percentage of the vehicle control group and 103.607 percentage of the vehicle control group and 109.147 percentage of the vehicle control group and 99.9145 percentage of the vehicle control group and 113.03 percentage of the vehicle control group
18:0 Cer level (P053 100 nM): 51.8361 percentage of the vehicle control group and 34.0436 percentage of the vehicle control group and 43.3209 percentage of the vehicle control group and 47.0876 percentage of the vehicle control group and 49.1716 percentage of the vehicle control group and 60.878 percentage of the vehicle control group and 53.1013 percentage of the vehicle control group and 34.6023 percentage of the vehicle control group
18:0 HexCer level (P053 100 nM): 26.076 percentage of the vehicle control group and 45.6733 percentage of the vehicle control group and 33.7976 percentage of the vehicle control group and 35.7543 percentage of the vehicle control group and 29.3831 percentage of the vehicle control group and 38.4787 percentage of the vehicle control group and 45.094 percentage of the vehicle control group and 48.7 percentage of the vehicle control group
18:0 SM level (P053 100 nM): 58.3863 percentage of the vehicle control group and 60.4391 percentage of the vehicle control group and 60.0968 percentage of the vehicle control group and 58.0444 percentage of the vehicle control group and 61.8417 percentage of the vehicle control group and 67.9073 percentage of the vehicle control group and 68.1366 percentage of the vehicle control group and 74.9383 percentage of the vehicle control group
18:1 SM level (P053 100 nM): 67.1121 percentage of the vehicle control group and 61.0781 percentage of the vehicle control group and 66.2487 percentage of the vehicle control group and 67.0185 percentage of the vehicle control group and 69.283 percentage of the vehicle control group and 68.5826 percentage of the vehicle control group and 71.1925 percentage of the vehicle control group
20:0 Cer level (P053 100 nM): 85.7665 percentage of the vehicle control group and 109.856 percentage of the vehicle control group and 101.721 percentage of the vehicle control group and 86.1177 percentage of the vehicle control group and 103.673 percentage of the vehicle control group and 96.5034 percentage of the vehicle control group and 78.6868 percentage of the vehicle control group
22:0 Cer level (P053 100 nM): 109.852 percentage of the vehicle control group and 94.2148 percentage of the vehicle control group and 84.7703 percentage of the vehicle control group and 98.1236 percentage of the vehicle control group and 119.57 percentage of the vehicle control group and 118.497 percentage of the vehicle control group and 136.979 percentage of the vehicle control group and 110.794 percentage of the vehicle control group
22:0 HexCer level (P053 100 nM): 96.8671 percentage of the vehicle control group and 87.3308 percentage of the vehicle control group and 81.4727 percentage of the vehicle control group and 94.5887 percentage of the vehicle control group and 107.975 percentage of the vehicle control group and 124.49 percentage of the vehicle control group and 104.798 percentage of the vehicle control group and 129.338 percentage of the vehicle control group
22:0 SM level (P053 100 nM): 88.1464 percentage of the vehicle control group and 112.339 percentage of the vehicle control group and 83.7907 percentage of the vehicle control group and 79.4494 percentage of the vehicle control group and 115.966 percentage of the vehicle control group and 112.687 percentage of the vehicle control group and 121.861 percentage of the vehicle control group and 131.998 percentage of the vehicle control group
22:1 SM level (P053 100 nM): 110.7 percentage of the vehicle control group and 102.614 percentage of the vehicle control group and 109.89 percentage of the vehicle control group and 108.27 percentage of the vehicle control group and 108.462 percentage of the vehicle control group and 113.237 percentage of the vehicle control group and 107.396 percentage of the vehicle control group and 108.45 percentage of the vehicle control group
24:0 HexCer level (P053 100 nM): 91.3427 percentage of the vehicle control group and 87.2698 percentage of the vehicle control group and 81.8027 percentage of the vehicle control group and 92.8624 percentage of the vehicle control group and 100.187 percentage of the vehicle control group and 107.186 percentage of the vehicle control group and 106.263 percentage of the vehicle control group and 116.702 percentage of the vehicle control group
24:0 SM level (P053 100 nM): 117 percentage of the vehicle control group and 90.9141 percentage of the vehicle control group and 93.8706 percentage of the vehicle control group and 115.93 percentage of the vehicle control group and 114.197 percentage of the vehicle control group and 134.57 percentage of the vehicle control group and 140.981 percentage of the vehicle control group
24:1 Cer level (P053 100 nM): 110.817 percentage of the vehicle control group and 85.3956 percentage of the vehicle control group and 97.052 percentage of the vehicle control group and 96.6841 percentage of the vehicle control group and 128.871 percentage of the vehicle control group and 121.829 percentage of the vehicle control group and 142.778 percentage of the vehicle control group and 120.748 percentage of the vehicle control group
24:1 HexCer level (P053 100 nM): 91.7407 percentage of the vehicle control group and 95.5309 percentage of the vehicle control group and 96.8003 percentage of the vehicle control group and 101.48 percentage of the vehicle control group and 104.186 percentage of the vehicle control group and 105.129 percentage of the vehicle control group and 100.754 percentage of the vehicle control group and 113.013 percentage of the vehicle control group
24:1 SM level (P053 100 nM): 111.218 percentage of the vehicle control group and 94.5875 percentage of the vehicle control group and 99.337 percentage of the vehicle control group and 100.942 percentage of the vehicle control group and 110.843 percentage of the vehicle control group and 105.998 percentage of the vehicle control group and 112.241 percentage of the vehicle control group and 112.423 percentage of the vehicle control group
14:0 SM level (P053 300 nM): 100.258 percentage of the vehicle control group and 95.2604 percentage of the vehicle control group and 95.8152 percentage of the vehicle control group and 99.1466 percentage of the vehicle control group and 109.96 percentage of the vehicle control group and 116.62 percentage of the vehicle control group and 129.695 percentage of the vehicle control group
16:0 Cer level (P053 300 nM): 91.1433 percentage of the vehicle control group and 77.1433 percentage of the vehicle control group and 90.5634 percentage of the vehicle control group and 83.6347 percentage of the vehicle control group and 92.4764 percentage of the vehicle control group and 98.9865 percentage of the vehicle control group and 90.2518 percentage of the vehicle control group
16:0 HexCer level (P053 300 nM): 76.4857 percentage of the vehicle control group and 73.433 percentage of the vehicle control group and 81.5302 percentage of the vehicle control group and 81.9705 percentage of the vehicle control group and 86.9585 percentage of the vehicle control group and 88.1949 percentage of the vehicle control group and 93.4284 percentage of the vehicle control group
